The values below come from the NIST ThermoML archive (doi:10.1021/je600519p).

Numbers after ± are expanded uncertainties.

Series [1] in a line: refractive index (Na D-line) (dimensionless). The conditions noted are these: 293.15 K; 101.33 kPa; Liquid.
The conditions of series [2]: 293.15 K; 101.33 kPa; Liquid.

A word on the refractive index: it is a measure of how strongly the sample bends light. For orientation: mass density means the mass of a sample divided by its volume.

`CCOC(=O)OCC` [diethyl carbonate]: the refractive index in series [1] stood at 1.3845 ± 0.0012. In addition, in series [2], the mass density is reported as 974.65 ± 0.29 kg/m3.

For `CCCCCCO` [hexan-1-ol], the refractive index in series [1] turned out to be 1.4178 ± 0.0013. The mass density in series [2] is recorded as 818.84 ± 0.75 kg/m3.

For the compound `CC(=O)c1ccccc1` [acetophenone], the refractive index in series [1] was 1.5336 ± 0.0013. In addition, the mass density in series [2] came to 1027.93 ± 0.46 kg/m3.
